Experimental data as given in PubChem BioAssay (NCI).
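These data come from cells grown in 96-well plates and exposed to compound for 48 hours at five concentrations. GI50: concentration for 50% inhibition of growth. At the TGI there is no net growth.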

Tests used:
Experiment in all cases: growth of human tumour cells (NCI), 48 h
786-0 renal = system: 786-0 renal
A498 renal = system: A498 renal
A549 NSCLC = system: A549 NSCLC
ACHN renal = system: ACHN renal
BT-549 breast = system: BT-549 breast
CAKI-1 renal = system: CAKI-1 renal
CCRF-CEM leukemia = system: CCRF-CEM leukemia
COLO 205 colon = system: COLO 205 colon
DU-145 prostate = system: DU-145 prostate
EKVX NSCLC = system: EKVX NSCLC
HCC-2998 colon = system: HCC-2998 colon
HCT-116 colon = system: HCT-116 colon
HCT-15 colon = system: HCT-15 colon
HL-60(TB) leukemia = system: HL-60(TB) leukemia
HOP-62 NSCLC = system: HOP-62 NSCLC
HOP-92 NSCLC = system: HOP-92 NSCLC
HS 578T breast = system: HS 578T breast
HT29 colon = system: HT29 colon
IGROV1 ovarian = system: IGROV1 ovarian
K-562 leukemia = system: K-562 leukemia
KM12 colon = system: KM12 colon
LOX IMVI melanoma = system: LOX IMVI melanoma
M14 melanoma = system: M14 melanoma
MALME-3M melanoma = system: MALME-3M melanoma
MCF7 breast = system: MCF7 breast
MDA-MB-231 breast = system: MDA-MB-231 breast
MDA-MB-435 = system: MDA-MB-435
MDA-MB-468 breast = system: MDA-MB-468 breast
MOLT-4 leukemia = system: MOLT-4 leukemia
NCI-H226 lung = system: NCI-H226 lung

CCOC(=O)C(Cc1ccccc1)N1C(=O)/C(=C/N2N=C(c3ccc(OC)cc3)CC2c2ccc3ccccc3c2)SC1=S (centres undefined)
GI50 (786-0 renal): 5.31 µM
TGI (786-0 renal): 27.9 µM
GI50 (A498 renal): 5.08 µM
TGI (A498 renal): 19.5 µM
GI50 (A549 NSCLC): 7.08 µM
TGI (A549 NSCLC): 27.3 µM
GI50 (ACHN renal): 4.86 µM
TGI (ACHN renal): 21.7 µM
GI50 (BT-549 breast): 5.79 µM
TGI (BT-549 breast): 19.8 µM
GI50 (CAKI-1 renal): 3.76 µM
TGI (CAKI-1 renal): 21.7 µM
GI50 (CCRF-CEM leukemia): 3.27 µM
TGI (CCRF-CEM leukemia): > 100 µM
GI50 (COLO 205 colon): 3.09 µM
TGI (COLO 205 colon): 14.7 µM
GI50 (DU-145 prostate): 11.2 µM
TGI (DU-145 prostate): 36.5 µM
GI50 (EKVX NSCLC): 2460 nM
TGI (EKVX NSCLC): 11.5 µM
GI50 (HCC-2998 colon): 3.05 µM
TGI (HCC-2998 colon): 10.2 µM
GI50 (HCT-116 colon): 3.3 µM
TGI (HCT-116 colon): 17.4 µM
GI50 (HCT-15 colon): 2600 nM
TGI (HCT-15 colon): 10.4 µM
GI50 (HL-60(TB) leukemia): 3.54 µM
TGI (HL-60(TB) leukemia): 16.5 µM
GI50 (HOP-62 NSCLC): 3.82 µM
TGI (HOP-62 NSCLC): 19.6 µM
GI50 (HOP-92 NSCLC): 2650 nM
TGI (HOP-92 NSCLC): 12.1 µM
GI50 (HS 578T breast): 2620 nM
TGI (HS 578T breast): 16.6 µM
GI50 (HT29 colon): 3.29 µM
TGI (HT29 colon): 13.5 µM
GI50 (IGROV1 ovarian): 4.09 µM
TGI (IGROV1 ovarian): 15.6 µM
GI50 (K-562 leukemia): 3.69 µM
TGI (K-562 leukemia): > 100 µM
GI50 (KM12 colon): 3.54 µM
TGI (KM12 colon): 13.3 µM
GI50 (LOX IMVI melanoma): 2800 nM
TGI (LOX IMVI melanoma): 10.8 µM
GI50 (M14 melanoma): 4.49 µM
TGI (M14 melanoma): 41.7 µM
GI50 (MALME-3M melanoma): 3.24 µM
TGI (MALME-3M melanoma): 13.6 µM
GI50 (MCF7 breast): 2350 nM
TGI (MCF7 breast): 7.63 µM
GI50 (MDA-MB-231 breast): 4.29 µM
TGI (MDA-MB-231 breast): 17.9 µM
GI50 (MDA-MB-435): 3.57 µM
TGI (MDA-MB-435): 17.8 µM
GI50 (MDA-MB-468 breast): 2330 nM
TGI (MDA-MB-468 breast): 7.25 µM
GI50 (MOLT-4 leukemia): 3.45 µM
TGI (MOLT-4 leukemia): > 100 µM
GI50 (NCI-H226 lung): 2560 nM
